These results are taken from US8921365B2, “Pharmaceutical composition, substrate comprising a pharmaceutical composition, and use of a pharmaceutical composition” (priority 2007, dated 2014).

Each structure is given as a SMILES string. Like-named read-outs stand apart in the source and are kept apart here.

In one series the test system is S. aureus. The settings on record: drug concentration-dependent; cited from earlier work.
The test system of series [1] is S. aureus BAA44. The experiment in a line: Acute infection of osteoblastic MG63 cells without lysostaphin, CFU per well of intracellular and adhered bacteria. Format: cell-based, Staphylococcus aureus. The settings on record: for effect on CFU per well of intracellular and adhered S. aureus BAA44: 18 h, FIG. 6. The protocol:
(§1) Osteoblastic MG63 cells were detached with the cell detachment medium Accutase 24 hours before infection. The cell number was determined using the Neubauer counting chamber. Cells were seeded onto uncoated 24 well plates with a cell density of 1.5×10^4 cells/cm^2 in 1 ml DMEM (Dulbecco's Modified Eagle's Medium) with 10% FCS (fetal calf serum), 1% Glutamax-I and 1% Natrium Pyruvat and incubated at 37° C. and 5% CO2.
The cell culture supernatant of the osteoblastic MG63 cells was removed with a pipette from the wells. 1 ml containing 1×10^6 S. aureus BAA44 CFU was added to each well containing also antibiotics having the following compositions: • 50 μg/ml vancomycin • 2.5 μg/ml rifampin • 1.25-10 μg/ml daptomycin • and their mixtures in different ratios as given below.
The combined osteoblastic cells, bacteria, and antibiotic compositions were incubated for 18 h at 37° C. under 5% CO2 atmosphere.
Afterwards the cells were washed once with PBS pH 7.4 (phosphate buffer solution) followed by lysis with 1 ml 0.1% Triton X100 in ringer's solution. The lysates were thoroughly resuspended with a pipette. Only one 24 well plate was handled and the other plates were stored at 4° C. in order to minimize bacterial growth in the lysate.
(§2) The lower the CFU value is the lower is the infection rate of the osteoblastic cells with S. aureus BAA44. This correlates to the efficacy of the added antibiotic.

For series [2], the system named is S. aureus ATTC 6538P. The settings on record: 200 μg/cm^2 vancomycin, FIG. 5a.
Method: An overnight culture of S. aureus ATTC 6538P was prepared by infecting 5 ml Caso-Bouillon medium with S. aureus ATTC 6538P. The cultures were incubated with shaking (450 U/min) over night at 37° C. 100 μl of the overnight cultures were transferred into 5 ml Caso Boulillon medium and incubated for 2 h at 37° C. with shaking (450 U/min). The bacterial density was determined photometrically. The bacterial suspension was diluted 1:2 in Caso Bouillon prior measurement. A bacterial suspension with a density of 1×10^5 CFU/ml in Caso Boullion with 10% FCS was used for the adhesion experiments.
After coating the titanium discs were washed either one time or three times with PBS. The coated and uncoated titanium discs were incubated for 5 min at room temperature with 5 ml PBS. This was repeated two more times. In the third circle the titanium discs were incubated for 1 h at room temperature. Before removing the PBS solution the titanium discs were turned or swiveled in order to increase the detachment of the antibiotics. Afterwards the titanium discs were transferred into sterile 12 well plates. […]
Afterwards the bacterial suspension was removed and the discs were washed three times with 2.5 ml PBS. […] The agar plates were incubated over night at 37° C. and the next day the colonies were counted.
Series [3] deals with S. aureus BAA44. Put plainly: Adhesion of bacteria on coated titanium discs, CFU per disc. It counts as cell-based, Staphylococcus aureus. The settings on record: 1.5 h, 200 μg/cm^2 vancomycin or 50 μg/cm^2 rifampin + 200 μg/cm^2 fosfomycin calcium, FIG. 5c. The protocol: The experimental set up was essentially the same as described above for S. aureus ATTC 6538P.
The coated titanium discs were washed either once or twice with 5 ml PBS before incubation with S. aureus BAA44 for 1.5 h.

Series [4] has as its system S. aureus ATTC 6538P in osteoblastic MG63 cells. The experiment in a line: Intracellular infection of osteoblastic MG63 cells after lysostaphin, metabolic activity (MTT, absorbance 540 nm). The settings on record: 24 h.
The subject of series [5] is S. aureus BAA44. The experiment in a line: Bactericidal activity of coated titanium discs in Minimal Medium, CFU in supernatant and on discs. It counts as cell-based, Staphylococcus aureus. As to conditions: 15.5 h in Minimal Medium, discs washed three times. The protocol:
The bacterial density was determined photometrically.
The Minimal Medium was used instead of Caso Bouillon to minimize the bacterial growth.
Afterwards the CFU in the supernatant as well as the adhered bacteria on the titanium discs were analysed. The supernatant was diluted 1:10 in PBS, 100 μl of the dilution were streaked out on Caso agar plates.

Series [6] has as its system S. aureus ATTC 6538P. The experiment in a line: Extracellular infection of osteoblastic MG63 cells, CFU in cell culture supernatant. Format: cell-based, Staphylococcus aureus. The settings on record: 24 h; 100 μg/ml gentamicin, 1 μg/ml rifampin, 100 μg/ml fosfomycin disodium, alone or combined with rifampin; FIG. 1. The protocol: as §1
The cell culture supernatant of the osteoblastic MG63 cells was removed with a pipette from the wells. 1 ml containing 1×10^6 S. aureus ATTC 6538P cells was added to each well. Two 24 well plates were incubated with S. aureus ATTC 6538P. The combined osteoblastic cells and bacteria were incubated for 1.5 h at 37° C. under 5% CO2 atmosphere. The presence of bacteria was determined using a microscope.
After 1.5 h the supernatant was removed and the wells were carefully washed twice with 37° C. warm DMEM without additives. It was microscopically checked, if not too many cells were detached during the washing procedure.
After incubation for 24 h, 100 μl of the cell culture supernatant was streaked out on Caso agar plates (Casein-peptone soymeal-peptone broth) directly, e.g. in case of rifampin, fosfomycin, rifampin/fosfomycin and rifmpicin/gentamicin, or after appropriate dilution, e.g. 1:100 in case of gentamicin, and incubated overnight at 37° C. […]

For series [7] the following is noted: in vivo; cited from earlier work.
The test system of series [8] is S. aureus BAA44 in osteoblastic MG63 cells. Put plainly: Intracellular infection of osteoblastic MG63 cells after lysostaphin, cell lysis and intracellular CFU count. Format: cell-based, Staphylococcus aureus. As to conditions: 24 h; fosfomycin 50-400 μg/ml, rifampin 2.5-40 μg/ml, mixtures in varying ratios; FIG. 4a-g. The protocol: Only one 24 well plate was handled and the other plates were stored at 4° C. in order to minimize bacterial growth in the lysate.
as §2

The subject of series [9] is S. aureus BAA44. The experiment in a line: Extracellular infection of osteoblastic MG63 cells, CFU in cell culture supernatant. It counts as cell-based, Staphylococcus aureus. As to conditions: 24 h; 100 μg/ml vancomycin, 10 μg/ml rifampin, 100 μg/ml fosfomycin, alone or combined with rifampin; rifampin resistant MRSA strain; FIG. 2. The protocol: Following antibiotics were used: • 100 μg/ml vancomycin • 10 μg/ml rifampin • 100 μg/ml fosfomycin • 10 μg/ml rifampin+100 μg/ml fosfomycin • 10 μg/ml rifampin+100 μg/ml vancomycin.
After incubation for 24 h 100 μl of the cell culture were streaked out on Caso agar plates (Casein-peptone soymeal-peptone broth) directly, e.g. in case of vancomycin, rifampin/fosfomycin and rifampin/vancomycin, or after appropriate dilution, e.g. 1:100 in case of rifampin and fosfomycin, and incubated overnight at 37° C. The supernatant of two wells per group was streaked out.

Where [10] appears, read: 2.5 μg/ml rifampin, 50 μg/ml vancomycin.
[11] abbreviates: 100 μg/ml vancomycin, 100 μg/ml gentamicin, 0.01-100 μg/ml rifampin, 1 μg/ml rifampin + 100 μg/ml fosfomycin or gentamicin, FIG. 3a-d.

`O=C(O)c1ccccc1O` [salicylic acid]: in the series with S. aureus, the “maximum reduction of S. aureus virulence parameters” value is reported as “approximately 50%”.

On to `CN[C@H](CC(C)C)C(=O)N[C@H]1C(=O)N[C@@H](CC(N)=O)C(=O)N[C@H]2C(=O)N[C@H]3C(=O)N[C@H](C(=O)N[C@H](C(=O)O)c4cc(O)cc(O)c4-c4cc3ccc4O)[C@H](O)c3ccc(c(Cl)c3)Oc3cc2cc(c3O[C@@H]2O[C@H](CO)[C@@H](O)[C@H](O)[C@H]2O[C@H]2C[C@](C)(N)[C@H](O)[C@H](C)O2)Oc2ccc(cc2Cl)[C@H]1O` [vancomycin], for which the “effect on CFU per well of intracellular and adhered S. aureus BAA44” value in the series on S. aureus BAA44 [1] (setting [10]) is “several hundred”. Further, the “anti-adhesive effect, CFU per titanium disc” value in the series with S. aureus ATTC 6538P [2] (discs washed one time before 1.5 h incubation) is on record as “anti-adhesive effect after one washing step”; in the series with S. aureus ATTC 6538P [2] (discs washed three times before 1.5 h incubation), “did not reveal any anti-adhesive effect”; with S. aureus BAA44 [3] (discs washed once), “reduced the adhesion”; with S. aureus BAA44 [3] (discs washed twice) it was “no reduction of bacterial adhesion”. In addition, the “metabolic activity of infected osteoblastic MG63 cells” value in [4] (setting [11]) is given as “strongly reduced”. Further, in the series with S. aureus BAA44 [5], the “bactericidal effect of the coating” value is “could not exhibit any bactericidal effect”. In addition, the “CFU in the supernatant” value in the series on S. aureus BAA44 [5] (200 μg/cm^2 vancomycin or 300 μg/cm^2 fosfomycin calcium + 70 μg/cm^2 rifampin, FIG. 5d) was “reduced the bacterial growth in the cell culture supernatant compared to the uncoated control slightly”. The “CFU adhered to the titanium disc” value in the series with S. aureus BAA44 [5] (FIG. 5d) is “more than 50,000 CFU”.

As to `C[C@@H]1O[C@@H]1P(=O)(O)O` [fosfomycin], the “effect on CFU of S. aureus ATTC 6538P in cell culture supernatant” value in the series on S. aureus ATTC 6538P [6] was “moderate”. Also, in [7], the “concentrations allowing for intravenous application” value is 100 to 400 µg/mL and the “concentrations allowing for intravenous application, preferred, in serum” value was 132 to 297 µg/mL. In addition, the “metabolic activity of infected osteoblastic MG63 cells” value in series [4] (10 μg/ml fosfomycin, FIG. 3b) is on record as “increases the metabolic activity only slightly”. Also, the “metabolic activity of infected osteoblastic MG63 cells” value in [4] (100 μg/ml fosfomycin, FIG. 3b) was “almost doubled”. The “effect on CFU per well of intracellular located S. aureus BAA44” value in series [8] is reported as “good efficacy”. For the same molecule, the “effect on CFU of S. aureus BAA44 in cell culture supernatant” value in the series on S. aureus BAA44 [9] is given as “relatively small”.

For the molecule `CCCCCCCCCC(=O)N[C@@H](Cc1c[nH]c2ccccc12)C(=O)N[C@H](CC(N)=O)C(=O)N[C@@H](CC(=O)O)C(=O)N[C@@H]1C(=O)NCC(=O)N[C@@H](CCCN)C(=O)N[C@@H](CC(=O)O)C(=O)N[C@H](C)C(=O)N[C@@H](CC(=O)O)C(=O)NCC(=O)N[C@H](CO)C(=O)N[C@@H]([C@H](C)CC(=O)O)C(=O)N[C@@H](CC(=O)c2ccccc2N)C(=O)O[C@@H]1C` [daptomycin], the “effect on CFU per well of intracellular and adhered S. aureus BAA44” value in the series with S. aureus BAA44 [1] (1.25 μg/ml daptomycin) is “good efficacy”; in the series on S. aureus BAA44 [1] (2.5 μg/ml daptomycin), “good efficacy”; with S. aureus BAA44 [1] (5 μg/ml daptomycin), “eradicate the infection completely”; in the series on S. aureus BAA44 [1] (10 μg/ml daptomycin), “eradicate the infection completely”.

On to `CO[C@H]1/C=C/O[C@@]2(C)Oc3c(C)c(O)c4c(O)c(c(/C=N/N5CCN(C)CC5)c(O)c4c3C2=O)NC(=O)/C(C)=C\C=C\[C@H](C)[C@H](O)[C@@H](C)[C@@H](O)[C@@H](C)[C@H](OC(C)=O)[C@@H]1C` [rifampin], for which the “effect on CFU of S. aureus ATTC 6538P in cell culture supernatant” value in the series with S. aureus ATTC 6538P [6] is given as “moderate”. Further, the “overgrowth of the MG63 cells with planktonic S. aureus BAA44” value in the series on S. aureus BAA44 [1] (2.5 μg rifampin, data not shown) was “prevented efficacious”. In the series on S. aureus BAA44 [1] (setting [10]), the “effect on CFU per well of intracellular and adhered S. aureus BAA44” value is “less than for vancomycin and daptomycin”. The “metabolic activity of infected osteoblastic MG63 cells” value in [4] (setting [11]) is on record as “reduce the cell death caused by S. aureus ATTC 6538P drastically”. For the same molecule, the “concentration sufficient in increasing the metabolic activity” value in [4] (FIG. 3a) stood at 0.006 µg/mL. Moreover, in series [8], the “effect on CFU per well of intracellular located S. aureus BAA44” value is reported as “good intracellular potency”. Besides, the “effect on CFU of S. aureus BAA44 in cell culture supernatant” value with S. aureus BAA44 [9] is “hardly any efficacy”.
